The source of these data is US5925769A, “Acetylenic 1,5-diarylpyrazoles as antiinflammatory agents” (Ortho Pharmaceutical, Corp., priority 1998, dated 1999).

What is called IC50 is the midpoint of a concentration-inhibition curve.

Assay [1] deals with CO. Kind of assay: Procedure IV: ex vivo eicosanoid synthesis assay using dogs, CO (TxB2). The assay is classed as in vivo. Particulars: dog, oral, 5 mg/kg. Here is the method: (§1) Adult beagle or mongrel dogs (10-15 kg) of either sex were fasted overnight prior to the initiation of each experiment. The forelimb was clipped and swabbed with an alcohol prep (70% isopropanol). Blood was drawn by venipuncture into syringes containing lithium heparin (Starstead, Newton, N.C.) immediately prior to administration of compound or vehicle and then at various intervals following dosing. The test compound was administered orally as a suspension in 0.5% methocel. At various times after dosing, blood samples were drawn and placed on an electric rocker platform to assure complete and continuous mixing. White blood cell (wbc) counts were performed using a Sysmex hematology analyzer. This was done in an effort to normalize the number of leukocytes to be stimulated with calcium ionophore. A 1.0 mL aliquot of whole blood was challenged with 50 μL of a 2.6×10^-5 M solution of calcium ionophore A23187 (Calbiochem, La Jolla, Calif.) prepared in DMSO and diluted in HBSS. After a 15 minute incubation at 37° C., the reaction was stopped by placing the samples in an ice bath (4° C.) for 5 minutes and then centrifuging at 11,000×g for 5 minutes to separate the plasma fraction from blood cells. The plasma fraction was removed, diluted in an appropriate buffer, and analyzed for the presence of LTB4 and TxB2 by standard RIA techniques.

Assay [2] concerns the target T1, CO (Rattus norvegicus, UniProt Q63921).
T1 construct: the supernatant was saved as the source of enzymes; endogenous in cells; host or cells: RBL-1 (rat basophilic leukemia) cells
T1 sequence (Q63921 27-602): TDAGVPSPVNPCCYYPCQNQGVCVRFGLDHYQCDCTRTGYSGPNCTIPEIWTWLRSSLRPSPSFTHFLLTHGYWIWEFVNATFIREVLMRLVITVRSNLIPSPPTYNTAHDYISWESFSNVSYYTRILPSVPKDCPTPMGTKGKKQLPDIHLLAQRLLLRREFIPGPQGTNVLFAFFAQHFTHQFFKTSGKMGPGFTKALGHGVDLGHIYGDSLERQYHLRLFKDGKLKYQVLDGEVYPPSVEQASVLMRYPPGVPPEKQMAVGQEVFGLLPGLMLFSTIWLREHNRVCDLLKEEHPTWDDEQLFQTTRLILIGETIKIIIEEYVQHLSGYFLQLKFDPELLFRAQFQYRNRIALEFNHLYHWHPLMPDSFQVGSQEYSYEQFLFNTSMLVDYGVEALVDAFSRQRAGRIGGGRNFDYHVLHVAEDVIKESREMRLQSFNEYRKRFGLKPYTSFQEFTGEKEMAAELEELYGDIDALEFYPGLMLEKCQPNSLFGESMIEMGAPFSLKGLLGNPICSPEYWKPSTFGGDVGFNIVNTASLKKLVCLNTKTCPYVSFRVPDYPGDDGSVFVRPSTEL
The assay is described as follows: Procedure II: CO activity in broken RBL-1 cells (homogenate supernatant). The assay is classed as biochemical. Conditions: RBL-1 broken cell supernatant; read-out: Proc. II CO IC50. The gist of the method: (§2)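 Supernatant from rat RBL-1 homogenate (9,220×g) was pre-incubated 5 min at 37 °C with 2 mM CaCl2 and compound or 1% DMSO, then with 1-^14C-arachidonic acid for 20 min at 37 °C.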

The subject of assay [3] is 5-LO. The assay is described as follows: Procedure IV: ex vivo eicosanoid synthesis assay using dogs, 5-LO (LTB4). Particulars: dog, oral, 5 mg/kg. It counts as in vivo. Here is the method:
as §1

The target in assay [4] is T2, 5-LO (Rattus norvegicus, UniProt P12527).
T2 construct: the supernatant was saved as the source of enzymes; endogenous in cells; host or cells: RBL-1 (rat basophilic leukemia) cells
T2 sequence (P12527 1-673): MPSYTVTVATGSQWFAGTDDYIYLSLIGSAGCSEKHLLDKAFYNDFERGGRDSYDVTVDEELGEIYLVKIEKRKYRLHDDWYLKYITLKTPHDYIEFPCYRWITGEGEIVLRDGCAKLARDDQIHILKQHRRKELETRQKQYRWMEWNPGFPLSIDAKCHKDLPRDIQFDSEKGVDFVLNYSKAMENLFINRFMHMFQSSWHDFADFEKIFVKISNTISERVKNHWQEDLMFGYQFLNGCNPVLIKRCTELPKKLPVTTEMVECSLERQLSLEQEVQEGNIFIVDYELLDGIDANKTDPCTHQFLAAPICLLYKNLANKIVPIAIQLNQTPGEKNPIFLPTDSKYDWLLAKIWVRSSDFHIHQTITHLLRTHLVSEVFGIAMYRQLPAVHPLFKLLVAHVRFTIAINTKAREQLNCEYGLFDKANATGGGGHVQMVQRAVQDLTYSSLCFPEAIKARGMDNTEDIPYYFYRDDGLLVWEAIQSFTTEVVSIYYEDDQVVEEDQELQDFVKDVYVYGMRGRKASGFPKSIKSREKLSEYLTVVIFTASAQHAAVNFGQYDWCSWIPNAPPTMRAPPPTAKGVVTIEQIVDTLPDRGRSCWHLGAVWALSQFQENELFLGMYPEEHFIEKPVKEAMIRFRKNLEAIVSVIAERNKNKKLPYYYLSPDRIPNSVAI
The assay is described as follows: Procedure II: 5-LO activity (5-HETE) in broken RBL-1 cells (homogenate supernatant). The assay is classed as biochemical. Particulars: RBL-1 broken cell supernatant; read-out: Proc. II 5-LO IC50. In outline:
as §2

As for `COc1ccc(-n2nc(C#CCN(O)C(N)=O)cc2-c2ccc(C)cc2)cc1` [Cpd 1, N-Hydroxy-N-(1(1-(4-methoxyphenyl)-5-(4-methylphenyl)pyrazol-3-yl)-1-propyn-3-yl)urea], the “% inh CO” value with CO [1] (1 h) came to 86%; with CO [1] (2 h) it was 82%; with CO [1] (4 h), 76%; in the assay with CO [1] (8 h), 46%; with CO [1] (24 h), 11%. The IC50 on CO [2] is 310 nM; on 5-LO [4] it was 70 nM. Besides, the “% inh 5-LO” value in the assay on 5-LO [3] (1 h) is listed as 56%; in the assay with 5-LO [3] (2 h), 53%; in the assay on 5-LO [3] (4 h), 32%; in the assay on 5-LO [3] (8 h), 15%; with 5-LO [3] (24 h), 10%.
